# Assay results from patent US20240139214A1, “AGENT FOR SUPPRESSING IL-31 PRODUCTION AND PHARMACEUTICAL COMPOSITION CONTAINING THE SAME” (KYUSHU UNIVERSITY, NATIONAL UNIVERSITY CORPORATION, priority 2021, published 2024).
# Tests used:
# mouse IL-31 gene = assay: IL-31 production inhibitory action: IL-31 gene expression by real-time PCR in antigen-stimulated CD4+ T cells from Dock8−/− AND Tg mice; type: cell-based; conditions: for IL-31 production inhibitory action (in words, discussion of Table 1): relative to compound 1; for activity at 0.312 µM / activity at 0.625 µM / activity at 1.25 µM / activity at 2.5 µM / activity at 0.078 µM / activity at 0.156 µM: Mus musculus, CD4+ T, 24 h, read-out: qPCR results (IL-31 production (%)): based on the case using 0.1% DMSO taken as 100%
# CD4+ T cells = assay: T cell proliferation assay (PMA and ionomycin, 3H-thymidine incorporation); type: cell-based, mouse; conditions: Mus musculus, CD4+ T, 66 h, read-out: Cell proliferation (%): based on the case using 0.2% DMSO taken as 100%
# Description: (§1) A T cell proliferation assay was performed by culturing CD4^+ T cells (5×10^4 cells) with T cell-depleted irradiated spleen cells (1×10^6 cells) in the presence of phorbol 12-myristate 13-acetate (PMA: 100 ng/ml; Sigma-Aldrich) and ionomycin (1 μg/ml; Sigma-Aldrich) for 66 hours. For the last 18 hours of culture, ^3H-thymidine (0.037 MBq) was added, and the incorporated radioactivity was measured with MicroBeta^2 (PerkinElmer, Inc., Waltham, MS).
# as §1, with “hours. Test compounds were added at various final concentrations at the start of culture.” for “hours.”, “MS). […]” for “MS).”
Structure (SMILES),"IL-31 production inhibitory action (in words, discussion of Table 1) (mouse IL-31 gene)",activity at 0.312 µM (mouse IL-31 gene) [%],activity at 0.625 µM (mouse IL-31 gene) [%],activity at 1.25 µM (mouse IL-31 gene) [%],activity at 2.5 µM (mouse IL-31 gene) [%],activity at 5 µM (CD4+ T cells) [%],activity at 10 µM (CD4+ T cells) [%],activity at 20 µM (CD4+ T cells) [%],activity at 40 µM (CD4+ T cells) [%],activity at 0.078 µM (mouse IL-31 gene) [%],activity at 0.156 µM (mouse IL-31 gene) [%]
"O=C(O)c1ccc(N/N=C/C2CCCCC2)cc1 [Negative control compound 7, 4-(2-(Cyclohexylmethylene)hydrazinyl)benzoic Acid, reference compound]",completely lost,–,–,–,–,–,–,–,–,–,–
"CN(C)c1ccc(/C=N/Nc2ccc(C(=O)O)cc2)cc1 [Compound 3, 4-(2-(4-(Dimethylamino)benzylidene)hydrazinyl)benzoic Acid]",maintained,–,–,–,–,–,–,–,–,–,–
"CN(C)c1ccc(-c2cnc(-c3ccc(C(=O)O)cc3)o2)cc1 [Compound 19, 4-(5-(4-(Dimethylamino)phenyl)oxazol-2-yl)benzoic Acid]",–,67.6,69.9,54.5,16.9,86.3,79.4,66,67.4,–,–
"O=C(O)c1ccc(-c2cc(-c3cc(C(F)(F)F)ccc3Cl)no2)cc1 [Compound 21, 4-(3-(2-Chloro-5-(trifluoromethyl)phenyl)isoxazol-5-yl)benzoic Acid]",–,25.3,23,38.2,13.1,–,95.5,98.2,106,23.7,29.9
"CC(C)c1ccc(-c2nnc(-c3ccc(C(=O)O)cc3)o2)cc1 [Compound 31, 4-(5-(4-Isopropylphenyl)-1,3,4-oxadiazol-2-yl)benzoic Acid]",–,–,53.6,24,–,–,97.5,79.3,65.6,–,–
"O=C(O)c1ccc(-c2nc(-c3cc(C(F)(F)F)ccc3Cl)n[nH]2)cc1 [Compound 25, 4-(3-(2-Chloro-5-(trifluoromethyl)phenyl)-1H-1,2,4-triazol-5-yl)benzoic Acid]",–,82.7,85.6,72.2,81.9,–,82.9,81.3,80.5,–,–
"O=C(O)c1ccc(-c2nnc(-c3cc(C(F)(F)F)ccc3Cl)o2)cc1 [Compound 32, 4-(5-(2-Chloro-5-(trifluoromethyl)phenyl)-1,3,4-oxadiazol-2-yl)benzoic Acid]",–,52.1,39.9,53.5,–,–,115,92.7,91.8,–,35.5
"CC(C)c1ccc(C(=O)Nc2nnc(-c3ccc(C(=O)O)cc3)s2)cc1 [Compound 34, 4-(5-(4-Isopropylbenzamido)-1,3,4-thiadiazol-2-yl)benzoic Acid]",–,–,48.3,52.3,–,–,79,90.8,87.8,–,–
"CC(C)c1ccc(/C=N/Nc2ccccc2)cc1 [Negative control compound 6, 1-(4-Isopropylbenzylidene)-2-phenylhydrazine, reference compound]",completely lost,–,–,–,–,–,–,–,–,–,–
"O=C(O)c1ccc(-c2cnc(-c3cc(C(F)(F)F)ccc3Cl)o2)cc1 [Compound 20, 4-(2-(2-Chloro-5-(trifluoromethyl)phenyl)oxazol-5-yl)benzoic Acid]",–,23.3,24.7,22.1,32.6,–,91.2,87.5,86.7,16.9,17.7
"CN(C)c1ccc(/C=N/Nc2ccc(C(=O)O)cc2)c(O)c1 [Negative control compound 2, 4-(2-(4-(Dimethylamino)-2-hydroxybenzylidene)hydrazineyl)benzoic Acid, reference compound]",tended to notably decrease,–,–,–,–,–,–,–,–,–,–
"CC(C)(C)c1ccc(/C=N/Nc2ccc(C(=O)O)cc2)cc1 [Compound 2, 4-(2-(4-(tert-Butyl)benzylidene)hydrazinyl)benzoic Acid]",maintained,–,–,–,–,–,–,–,–,–,–
"O=C(O)c1ccc(-c2ncc(-c3cc(C(F)(F)F)ccc3Cl)[nH]2)cc1 [Compound 27, 4-(5-(2-Chloro-5-(trifluoromethyl)phenyl)-1H-imidazol-2-yl)benzoic Acid]",–,39.6,43.1,46.8,–,86.2,78,70,–,28.6,35.1
"O=C(O)c1ccc(-n2ccc(-c3cc(C(F)(F)F)ccc3Cl)n2)cc1 [Compound 30, 4-(3-(2-Chloro-5-(trifluoromethyl)phenyl)-1H-pyrazol-1-yl)benzoic Acid]",–,29.4,23.4,26.1,30.9,–,98.3,90.3,76.4,41.5,39.9
"CN(CC(O)CO)c1ccc(/C=N/Nc2ccc(C(=O)O)cc2)cc1 (stereo not shown) [Negative control compound 3, 4-(2-(4-((2,3-Dihydroxypropyl)(methyl)amino)benzylidene)hydrazineyl)benzoic Acid, reference compound]",tended to notably decrease,–,–,–,–,–,–,–,–,–,–
"O=C(O)c1ccc(-c2cn(-c3cc(C(F)(F)F)ccc3F)nn2)cc1 [Compound 24, 4-(1-(2-Fluoro-5-(trifluoromethyl)phenyl)-1H-1,2,3-triazol-4-yl)benzoic Acid]",–,18.1,32,31.5,–,88.1,81.5,71.3,62.9,–,31.2
"O=C(O)c1ccc(-c2nc(-c3cc(C(F)(F)F)ccc3Cl)no2)cc1 [Compound 33, 4-(3-(2-Chloro-5-(trifluoromethyl)phenyl)-1,2,4-oxadiazol-5-yl)benzoic Acid]",–,37.9,25.1,28,29.7,–,73.5,66.7,64.3,57.7,48.9
"CC(C)c1ccc(-c2cc(-c3ccc(C(=O)O)cc3)n[nH]2)cc1 [Compound 28, 4-(5-(4-Isopropylphenyl)-1H-pyrazol-3-yl)benzoic Acid]",–,70.6,42.6,28,–,–,99.9,89.5,69.1,–,73.2
"CC(C)c1ccc(/C=N/Nc2ccccc2C(=O)O)cc1 [Negative control compound 5, 2-(2-(4-Isopropylbenzylidene)hydrazineyl)benzoic Acid, reference compound]",completely lost,–,–,–,–,–,–,–,–,–,–
"O=C(O)c1ccc(-c2cc(-c3cc(C(F)(F)F)ccc3Cl)[nH]n2)cc1 [Compound 29, 4-(5-(2-Chloro-5-(trifluoromethyl)phenyl)-1H-pyrazol-3-yl)benzoic Acid]",–,52.3,61.9,40.7,63.6,–,88.6,77.7,86,–,59.1
"CC(C)c1ccc(/C=N/Nc2cccc(C(=O)O)c2)cc1 [Negative control compound 4, 3-(2-(4-Isopropylbenzylidene)hydrazineyl)benzoic Acid, reference compound]",completely lost,–,–,–,–,–,–,–,–,–,–
"CC(C)c1ccc(-c2cnc(-c3ccc(C(=O)O)cc3)[nH]2)cc1 [Compound 26, 4-(5-(4-Isopropylphenyl)-1H-imidazol-2-yl)benzoic Acid]",–,–,45.1,26.2,–,–,77.1,70.6,64.6,–,–
